Assay results taken from paper PMC9448818 (Translational Psychiatry, 2022).
Values joined by “and” are separate entries in the source; they are usually repeats but may differ in a detail not shown here. Equal values may be shown once.

Key:
patients with MDD [1] = assay: Toronto side effects scale (TSES), treatment-related side effects; format: in vivo, human; conditions: Week 16
Source text: The Toronto side effects scale (TSES), administered on Weeks 2, 4, 10, 12, and 16, is a clinical instrument designed to assess the frequency and severity of treatment-related side effects on 5-point Likert scales. The “intensity” score is derived by multiplying the frequency and severity of each side effect. The items assessed can be broadly categorized into the central nervous system (CNS), gastrointestinal (GI), and sexual side effects, as well as weight gain (Table S1)[28]. The primary outcomes for side effects were both dichotomous and continuous: (1) absence or presence of side effects within the four categories on the last visit of Phases I and II and (2) the intensity of each category of side effect across visits during each Phase.
(§1) We assessed the dichotomous measures of response (responder vs. non-responder and remitter vs. non-remitter) and side effects (present vs. absent) for the last timepoint in Phases I and II using logistic regression models with total MADRS score at baseline included as a covariate. Given the availability of biweekly MADRS scores and multiple time points for TSES, continuous measures of response (percentage of symptom improvement) and side effects (intensity of each category of side effects) were assessed using linear mixed-effects models that included interactions of CYP2C19 and CYP2D6 metabolizer groups with timepoint, and recruitment site and individual as random effects variables.
(§2) Using Spearman’s rank correlation, we explored whether measures of unadjusted serum concentrations were associated with symptom improvement and the intensity of side effects during Phase I and II.

[2] = Dose-adjusted serum concentrations of drug and metabolite (LC-MS/MS) by CYP2C19 and CYP2D6 metabolizer group; format: in vivo, human; conditions: for B, ESCadj concentrations in serum, CYP2C19 RM+UM / B, ESCadj concentrations in serum, CYP2D6 IM+PM / B, ESCadj concentrations in serum, CYP2C19 IM+PM: vs NM
Source text: (§3) The 16-week study protocol consisted of two phases following screening and baseline visits. […] Blood samples were collected on Weeks 2, 10, and 16 to measure medication levels and on Week 4 for pharmacogenetic analyses. The methods used for the quantification of serum levels of drug and metabolite concentrations is described in the Supplementary Methods.
Serum concentrations were adjusted for dosage (i.e., ng/mL/mg). Sampling time (i.e., hours since the last dose) was entered as a covariate in the regression models to account for when the medication was taken.
The CYP2C19 metabolizer group was not included as a fixed effect covariate, as CYP2C19 is not known to be involved in the metabolism of ARI. […]
Collection of blood samples and quantification of serum drug and metabolite concentrations Participants self-reported the time at which the last dosage of the study medication was taken during the collection of the blood samples. […]
major metabolites, (S-DCT) and (DHA), were performed at the CAMH Clinical Laboratory using LC-MS/MS technology. Briefly, a mix of deuterated internal standards (Cerilliant) was added to 100 µL of each serum specimen, calibrator (Cerilliant) and quality control (MassCheck Antidepressants/Neuroleptics, Level 1 and Level 2). Proteins were precipitated with 300 µL of 9:1 Acetonitrile:Methanol (Sigma-Aldrich) followed by 5 min centrifugation at 9000 rpm. 25 µL of each supernatant was diluted with 200 µL of 0.1% Formic acid (Sigma-Aldrich) and then analyzed on the LC-MS/MS platform consisting of ThermoFisher TSQ Quantum Ultra mass spectrometer coupled with ThermoFisher Surveyor LC pump and HTC PAL autosampler fitted with a Kinetex F5 2.6 µm, 100 x 2.1 mm column (Phenomenex). Six minute gradient elution with 0.1% Formic Acid (mobile phase A) and Acetonitrile (mobile phase B) was applied. Collision energies ranged from 14 to […]
calibration curve ranging from 10 to 1000 ng/mL for each analyte.
Vendor nominal means for quality controls were used to assess the assay accuracy for each of the four analytes […]
precision was considered acceptable assay performance.
Data was analyzed with ThemoFisher XCalibur software.

patients with MDD [3] = assay: MADRS response, remission and symptom improvement (CAN-BIND-1 trial); format: in vivo, human; design: key to Estimate for Week, percentage symptom improvement (MADRS), mixed effects model / Estimate for CYP2C19 IM+PM, percentage symptom improvement (MADRS), mixed effects model / Estimate for CYP2C19 RM+UM, percentage symptom improvement (MADRS), mixed effects model / Estimate for CYP2D6 IM+PM, percentage symptom improvement (MADRS), mixed effects model: % points of improvement = (baseline MADRS − MADRS)/baseline; conditions: for share of the effect of CYP2C19 IM+PM phenotype on symptom improvement mediated by ESCadj serum concentrations: ESC-Only, bootstrap mediation analysis; for cumulative difference in symptom improvement from baseline between CYP2C19 NMs and IMs: at trial end (Week 16)
Procedure: as §3
Depressive symptoms were assessed using MADRS every 2 weeks from Week 0 to 16. The primary outcomes for response were: (1) response status (responder versus non-responder) on the last visit of Phases I and II (i.e., Week 8 and 16), and (2) the percentage of symptom improvement across visits during Phases I and II. Remission status (remitter versus non-remitter) at the end of Phases I and II was a secondary outcome for a response. These response outcomes are described in the Supplementary Methods.
as §1, §2
Description of measures of response outcome
Response status signifies the classification of patients as “responder” or “non-responder” if MADRS reduction of ≥50% or <50% from baseline was reached, respectively. For remission status, patients are classified as “remitter” if they achieved a MADRS total score of 10 or less; otherwise, they are classified as “non-remitter”. The percentage of symptom improvement was calculated by subtracting the total MADRS score from the baseline MADRS score and then dividing by the baseline MADRS score for each of the eight time points. These measures of response were selected, since continuous measures, such as percentage symptom improvement, capture more information and have higher power, whereas dichotomous measures, such as response status, has a particular clinical relevance since it is associated with MDD prognosis.
Post-hoc mediation analyses […]
strength of the association between the CYP2C19 or CYP2D6 metabolizer groups (predictor variable) and measures of treatment response or side effect (outcome variable) must be attenuated or rendered non- […]
mediation, respectively.1,2 R package “Mediation”3 and “lavaan”4 was used for continuous and binary variables, respectively, to perform nonparametric bootstrap analyses with 5000 iterations to calculate the estimate of the […]
1Baron RM, Kenny DA. The moderator–mediator variable distinction in social psychological research: Conceptual, strategic, and statistical considerations.
2MacKinnon DP, Lockwood CM, Hoffman JM, West SG, Sheets V. A Comparison of Methods to Test Mediation and Other Intervening Variable Effects.
3Tingley D, Yamamoto T, Hirose K, Keele L, Imai K, Trinh M et al. mediation: Causal Mediation Analysis. […]
project.org/package=mediation (accessed 7 Apr2021).
4Savalei V, Rosseel Y. Computational Options for Standard Errors and Test Statistics with Incomplete Normal and Nonnormal

CYP2D6 = conditions: cited from earlier work
[4] = vs NM, Phase II, by treatment arm

CN(C)CCC[C@@]1(c2ccc(F)cc2)OCc2cc(C#N)ccc21 [ESC, Escitalopram]
odds of reporting a CNS side effect, CYP2D6 NMs compared to IM + PMs (factor) (patients with MDD [1]): 7.69 | odds of reporting decreased sleepiness, CYP2D6 NMs compared to IM + PMs (patients with MDD [1]): 25.53 | odds of reporting sweating, CYP2D6 NMs compared to IM + PMs (patients with MDD [1]; listed as ESC-Only): 29.21 | higher mean ESCadj concentrations, CYP2C19 IM + PMs compared to NMs ([2]; Week 2 (Phase I)): 42.9% | difference in ESCadj concentrations between CYP2C19 NMs and IM + PMs ([2]; Week 10, ESC + ARI): 39.6% | higher levels of ESCadj in serum, CYP2D6 IM + PMs compared to NMs ([2]; Week 10, ESC-Only): 58.9% | difference in ESCadj concentrations between CYP2C19 NMs and IM + PMs ([2]; Week 16, ESC + ARI): 58.2% | higher levels of ESCadj in serum, CYP2D6 IM + PMs compared to NMs ([2]; Week 16, ESC-Only): 59.2% | ESC levels in CYP2D6 IM+PMs, ESC+ARI compared to ESC-Only ([2]; Week 16, ARI coadministration): lower | ESCadj serum levels in CYP2D6 NMs, ESC + ARI compared to ESC-Only ([2]; Weeks 10 and 16, ARI coadministration): significantly higher | B, ESCadj concentrations in serum, CYP2C19 RM+UM ([2]; Week 2 (Phase I)): -0.05 | B, ESCadj concentrations in serum, CYP2D6 IM+PM ([2]; Week 2 (Phase I)): 0.31 | B, ESCadj concentrations in serum, CYP2C19 IM+PM ([2]; Week 2 (Phase I), linear regression, dose-adjusted): 0.59 | B, ESCadj concentrations in serum, CYP2C19 IM+PM ([2]; Week 10, ESC+ARI arm): 0.69 | B, ESCadj concentrations in serum, CYP2C19 RM+UM ([2]; Week 10, ESC+ARI arm): 0.01 | B, ESCadj concentrations in serum, CYP2D6 IM+PM ([2]; Week 10, ESC+ARI arm): -0.37 | B, ESCadj concentrations in serum, CYP2C19 IM+PM ([2]; Week 10, ESC-Only arm): 0.65 | B, ESCadj concentrations in serum, CYP2C19 RM+UM ([2]; Week 10, ESC-Only arm): 0.14 | B, ESCadj concentrations in serum, CYP2D6 IM+PM ([2]; Week 10, ESC-Only arm): 0.71 and 0.65 | B, ESCadj concentrations in serum, CYP2C19 IM+PM ([2]; Week 16, ESC+ARI arm): 0.77 | B, ESCadj concentrations in serum, CYP2C19 RM+UM ([2]; Week 16, ESC+ARI arm): 0.17 | B, ESCadj concentrations in serum, CYP2D6 IM+PM ([2]; Week 16, ESC+ARI arm): -0.32 | B, ESCadj concentrations in serum, CYP2C19 IM+PM ([2]; Week 16, ESC-Only arm): 0.66 | B, ESCadj concentrations in serum, CYP2C19 RM+UM ([2]; Week 16, ESC-Only arm): -0.10 | Estimate for Week, percentage symptom improvement (MADRS), mixed effects model (patients with MDD [3]; Phase I (Weeks 0–8)): 4.14 | Estimate for Week, percentage symptom improvement (MADRS), mixed effects model (patients with MDD [3]; Phase II (Weeks 8–16), by treatment arm): 1.47 | share of the effect of CYP2C19 IM+PM phenotype on symptom improvement mediated by ESCadj serum concentrations (patients with MDD [3]; Phase II): 45% | share of the effect of CYP2C19 IM+PM phenotype on symptom improvement mediated by ESCadj serum concentrations (patients with MDD [3]; Phase II, listed as ESC-Only): about 45% | cumulative difference in symptom improvement from baseline between CYP2C19 NMs and IMs (patients with MDD [3]): 11.5% | cumulative difference in symptom improvement from baseline between CYP2C19 NMs and IMs (patients with MDD [3]; listed as ESC-Only): 11.52% | overall response rate (patients with MDD [3]; end of Phase I (Week 8), MADRS reduction ≥50% from baseline, 83/178): 46.62% | overall response rate (patients with MDD [3]; end of Phase II (Week 16), responders continued ESC, non-responders augmented with ARI, 122/178): 68.54% | Estimate for CYP2C19 IM+PM*Week, percentage symptom improvement (MADRS), mixed effects model (patients with MDD [3]; vs NM, Phase I): -1.48 | Estimate for CYP2C19 IM+PM, percentage symptom improvement (MADRS), mixed effects model (patients with MDD [3]; vs NM, Phase I): 3.27 | Estimate for CYP2C19 RM+UM*Week, percentage symptom improvement (MADRS), mixed effects model (patients with MDD [3]; vs NM, Phase I): -0.73 | Estimate for CYP2C19 RM+UM, percentage symptom improvement (MADRS), mixed effects model (patients with MDD [3]; vs NM, Phase I): 3.74 | Estimate for CYP2D6 IM+PM*Week, percentage symptom improvement (MADRS), mixed effects model (patients with MDD [3]; vs NM, Phase I): 0.31 | Estimate for CYP2D6 IM+PM, percentage symptom improvement (MADRS), mixed effects model (patients with MDD [3]; vs NM, Phase I): 3.13 | Estimate for CYP2C19 IM+PM, percentage symptom improvement (MADRS), mixed effects model (patients with MDD [3]; [4]): 26.15 | Estimate for CYP2C19 RM+UM*Week, percentage symptom improvement (MADRS), mixed effects model (patients with MDD [3]; [4]): -1.04 | Estimate for CYP2C19 RM+UM, percentage symptom improvement (MADRS), mixed effects model (patients with MDD [3]; [4]): 14.10 | Estimate for CYP2D6 IM+PM*Week, percentage symptom improvement (MADRS), mixed effects model (patients with MDD [3]; [4]): -0.41 | Estimate for CYP2D6 IM+PM, percentage symptom improvement (MADRS), mixed effects model (patients with MDD [3]; [4]): 1.19 | Estimate (B) for CYP2C19 IM+PM*Week, average percentage change in MADRS from baseline, mixed effects model (patients with MDD [3]; vs NM, Phase II, by treatment arm, listed as ESC-Only): -2.34 | average percentage change in MADRS from baseline lower in CYP2C19 IMs than in NMs (patients with MDD [3]; with every two-week assessment, Phase II, simple effects analysis): 2.54% | inhibition of CYP2D6 in vitro (CYP2D6): weak inhibitors
